Here are results for three compounds from patent EP1589016A1, “Thio-substituted tricyclic and bicyclic aromatic methanesulfinyl derivatives” (CEPHALON FRANCE, priority 2004, dated 2005).

For this experiment, the system named is Rats. Put plainly: Evaluation of Wake Promoting Activity in Rats (EEG/EMG sleep/wake scoring). The experiment is classed as in vivo, Wistar rats. The conditions noted are these: i.p. route, 100 mg/kg; for Mean AUC 0-3h, Test compound: n = 4 rats per test compound, group mean, compared with vehicle group (8 rats); for wakefulness compared to the vehicle-treated control groups: rats, p< 0.05 versus vehicle. The protocol:
The methodology utilized for evaluating wake promoting activity of test compounds is based on that described by Edgar and Seidel, Journal of Pharmacology and Experimental Therapeutics, 283:757-769, 1997, and incorporated herein in its entirety by reference.
Animal Surgery. Adult, male Wistar rats (275-320g from Charles River Laboratories, Wilmington, MA) were anesthetized (Nembutal, 45 mg/kg, ip.) and surgically prepared with implants for recording of chronic EEG (encephalographic) and EMG (electromyographic) recording. The EEG implants were made from commercially available components (Plastics One, Roanoke, VA). EEG signals were recorded from stainless steel screw electrodes: 2 frontal (+3.0 mm AP from bregma, ±2.0 mm ML), and 2 occipital (-4.0 mm AP from bregma, ±2.0 mm ML). Two Teflon-coated stainless steel wires were positioned under the nuchal trapezoid muscles for EMG recording. All electrode leads were inserted into a connector pedestal and the pedestal affixed to the skull by application dental acrylic. Antibiotic was administered post surgically and antibiotic cream was applied to the wound edges to prevent infection. At least one week elapsed between surgery and recording.
Recording environment. Postsurgically, rats were housed in pairs in an isolated room. Food and water were available ad libitum, ambient temperature was 21°C, and humidity was 55%. At least 24 hrs prior to recording, they were placed in Nalgene containers (31 x 31 x 31 cm) with a wire-grid top, and entry to the room was prohibited during the day of recording except for dosing. The containers were placed on a rack with two shelves, 4 containers per shelf. Fluorescent overhead room lights were set to a 24 hr. light/dark cycle (on at 7 AM, off at 7 PM). Light levels inside the containers were 38 and 25 lux for the top and bottom shelves respectively. Background white-noise (68db inside the containers) was present in the room to mask ambient sounds.
Data acquisition. EEG and EMG signals were led via cables to a commutator (Plastics One) and then to pre-amplifiers (model 1700, A-M Systems, Carlsborg, WA). EEG and EMG signals were amplified (10K and 1K respectively) and bandpass filtered between 0.3 and 500 Hz for EEG and between 10 and 500 Hz for EMG. These signals were digitized at 128 samples per second using ICELUS sleep research software (M. Opp, U. Texas; see Opp, Physiology and Behavior 63:67-74, 1998, and Imeri, Mancia, and Opp, Neuroscience 92:745-749, 1999, incorporated by reference herein in their entirety) running under Labview 5.1 software and data acquisition hardware (PCI-MIO-16E-4; National Instruments, Austin, TX). On the day of dosing, data was recorded for 6 to 10 hours beginning at 11 AM.
Drug administration and study design. Compounds were evaluated on groups of from 4 to 8 rats carried out over one or two separate test sessions. Each animal was tested with a different compound or vehicle for up to 10 weeks with at least 7 days between successive tests. A vehicle group was included in all experiments, and each animal received vehicle every 4th test. Test compounds were suspended in sterile 0.25% methylcellulose (pH=6.2; Upjohn Co., Kalamazoo, MI) at […]. Although compounds can be administered at dosages greater than 100 mg/kg and are expected to be active under the selection criteria of data analysis, unless otherwise noted, compounds were administered at a single dose of 100 mg/kg. Dosing was carried out at noon, while the rats were predominantly asleep. Each rat was lifted out of its container, given an intraperitoneal injection in a volume of 5 mL/kg, and replaced. Dosing required approximately 30 sec per rat.
Sleep / wake scoring. Sleep and wake activity were determined manually using ICELUS software. […]

Turning to `O=C(C[S+]([O-])Cc1cccc2c1-c1ccccc1C2)N1CCNCC1` (stereo not drawn) [Example 130], the “Mean AUC 0-3h, Test compound” value is listed as 149.2 % of waiking time x hr and the “wakefulness compared to the vehicle-treated control groups” value was “significantly greated wakefulness”.

As for `CC(C)(C)OC(=O)N1CCN(C(=O)CSCc2ccc3oc4ccc(F)cc4c3c2)CC1` [Example 26, 4-[2-(8-fluorodibenzofuran-2-yl-methylsulfanyl)acetyl]-piperazine-1-carboxylic acid tret-butyl ester], the “Mean AUC 0-3h, Test compound” value is recorded as 132.0 % of waiking time x hr and the “wakefulness compared to the vehicle-treated control groups” value was “significantly greated wakefulness”.

Turning to `O=C(C[S+]([O-])Cc1cccc2c1oc1ccccc12)N1CCNCC1` (stereo not drawn) [Example 99], the “Mean AUC 0-3h, Test compound” value is 129.1 % of waiking time x hr and the “wakefulness compared to the vehicle-treated control groups” value is reported as “significantly greated wakefulness”.
